Source: ChEMBL document CHEMBL3987221, “The Australian National University Dept Of Immunology Pathogen Box Compounds Screened” (2018)
Calls of active or inactive are those of the source. The rule behind the calls is not given here.

Tests used:
[1] = target: Ferrochelatase, mitochondrial (Homo sapiens) (UniProt P22830); conditions: at 10 µM
Description: (§1) Compound was evaluated for the inhibition of human FECH at 10uM

[2] = target: Porphobilinogen deaminase (Homo sapiens) (UniProt P08397); conditions: at 100 µM
Description: (§2) Compound was evaluated for the inhibition of human HMBS at 100uM

[3] = target: T1, Ferrochelatase, mitochondrial (Homo sapiens) (UniProt P22830); conditions: at 10 µM; remark: listed apart in the source
T1 sequence (whole entry): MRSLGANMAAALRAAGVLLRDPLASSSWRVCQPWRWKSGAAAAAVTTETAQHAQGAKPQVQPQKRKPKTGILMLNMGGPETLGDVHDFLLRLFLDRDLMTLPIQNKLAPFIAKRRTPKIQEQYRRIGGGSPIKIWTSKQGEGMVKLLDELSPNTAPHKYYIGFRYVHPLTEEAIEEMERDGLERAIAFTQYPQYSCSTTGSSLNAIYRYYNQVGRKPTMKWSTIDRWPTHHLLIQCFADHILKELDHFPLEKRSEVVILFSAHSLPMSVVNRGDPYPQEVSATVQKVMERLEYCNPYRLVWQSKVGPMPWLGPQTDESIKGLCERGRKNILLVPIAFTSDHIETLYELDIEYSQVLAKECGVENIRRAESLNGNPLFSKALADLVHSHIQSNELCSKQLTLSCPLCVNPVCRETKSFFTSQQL
Description: as §1

[4] = target: T2, Porphobilinogen deaminase (Homo sapiens) (UniProt P08397); conditions: at 100 µM; remark: listed apart in the source
T2 sequence (whole entry): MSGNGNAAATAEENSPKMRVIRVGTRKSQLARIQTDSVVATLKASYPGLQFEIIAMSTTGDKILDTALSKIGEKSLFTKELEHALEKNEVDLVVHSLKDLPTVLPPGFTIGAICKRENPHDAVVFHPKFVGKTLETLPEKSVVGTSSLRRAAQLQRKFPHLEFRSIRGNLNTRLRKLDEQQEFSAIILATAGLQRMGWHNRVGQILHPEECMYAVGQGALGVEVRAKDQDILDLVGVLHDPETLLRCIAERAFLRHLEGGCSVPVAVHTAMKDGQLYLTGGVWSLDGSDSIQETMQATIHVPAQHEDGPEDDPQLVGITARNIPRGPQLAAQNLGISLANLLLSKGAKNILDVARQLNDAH
Description: as §2

Molecule	inhibition [1]	inhibition [2]	inhibition [3]	inhibition [4]
MMV688978	inactive	inactive		
CC(=O)N1CCc2cc3nc(C)cc(C)c3cc21			inactive	inactive
COC(=O)c1c(NC(=O)c2cc3ccccc3oc2=O)sc2c1CCN(Cc1ccccc1)C2			inactive	inactive
CC(c1cc(Cl)cc(Cl)c1)N(C)c1ncc2c(N)nc(N)nc2n1 (stereo not drawn)			inactive	inactive
CCS(=O)(=O)N(Cc1ccco1)Cc1cc2ccc(C)cc2nc1O			inactive	inactive
COC(=O)c1c(NC(=O)c2c(F)c(F)c(F)c(F)c2F)sc2c1CCCCC2			inactive	inactive
COc1ccc(S(=O)(=O)Nc2ccc(CN3CCN(C(=O)c4cccc(C#N)c4)CC3)cc2)cc1			inactive	inactive
FC(F)(F)c1nnc2ccc(Cl)nn12			inactive	inactive
Cc1ccc(S(=O)(=O)n2cc(-c3ccnc(N)c3)c3cc(Br)cnc32)cc1			inactive	inactive
CCC(NC(=O)c1ccccc1NC(=O)c1ccc(C)cc1)C(=O)OC (stereo not drawn)			inactive	inactive
CN1CCN(S(=O)(=O)c2ccc(-c3ccc4c(Nc5ccc6nn[nH]c6c5)ccnc4c3)cc2)CC1			inactive	inactive
O=C1Nc2ccc(Br)cc2C12NCCc1c2[nH]c2ccccc12 (stereo not drawn)			inactive	inactive
CC1(C)OB(O)c2ccc(C3=NOC(c4cc(Cl)c(F)c(Cl)c4)(C(F)(F)F)C3)cc21 (stereo not drawn)			inactive	inactive
COc1ccc(-c2cncc3ccc(C(=O)NCCCn4ccnc4)nc23)cc1			inactive	inactive
COc1ccc(CN2CCOc3ccc(C(C)(O)CN(C)C)cc3C2)cc1C (stereo not drawn)			inactive	inactive
COc1cccc2c(C)nc(N=C(N)N)nc12			inactive	inactive
Clc1cccc(CO[C@H]2CCc3ccccc3[C@@H]2n2ccnn2)c1			inactive	inactive
Nc1nc(N)c2c3c(sc2n1)CN(Cc1ccccc1)CC3			inactive	inactive
O=C(NC1CC1)c1ccc(CSCc2ccccc2Cl)o1			inactive	inactive
Cc1c[nH]c(CCNC(=O)c2cc(-c3ccc(Cl)cc3)cs2)n1			inactive	inactive
CN1CCN(c2nccc3nc(-c4ccc(F)c(F)c4)[nH]c23)CC1			inactive	inactive
COc1cc(-c2cc(-c3ccc(S(C)(=O)=O)cc3)cnc2N)ccc1O			inactive	inactive

Molecule	inhibition [1]	inhibition [2]	inhibition [3]	inhibition [4]
Cc1cc(C)cc(COc2ccc3c(C)c(CCC(=O)O)c(=O)oc3c2C)c1			inactive	inactive
CC(=O)Nc1ccc(-c2noc(CC3CCCN(Cc4cccc(F)c4C)C3)n2)cc1 (stereo not drawn)			inactive	inactive
CCOc1ccc(-c2nc(NC(=O)CS(=O)(=O)c3ccccc3)sc2C)cc1			inactive	inactive
Nc1ncc(Br)cc1-c1nc2cc(Cl)cnc2[nH]1			inactive	inactive
CCN(CC)C(=O)N1CCN(C)CC1			inactive	inactive
COc1ccc(-c2cnc3ccc(N4CCCC4)nn23)cc1OC			inactive	inactive
CC(=O)NCC1CN(c2ccc(-c3ccc(CNCc4cn[nH]n4)cc3)c(F)c2)C(=O)O1 (stereo not drawn)			inactive	inactive
O=C(NCCN1CCCC1)c1cc(NCCCCN2CCC(F)(F)CC2)nc2ccc(Cl)cc12			inactive	inactive
N=C(N)c1ccc(-c2cc(-c3ccccc3)on2)cc1			inactive	inactive
c1ccc(Oc2ccc(-c3cc(CN4CCOCC4)[nH]n3)cc2)cc1			inactive	inactive
c1ccc(Oc2ccc(-c3cc(N4CCOCC4)[nH]n3)cc2)cc1			inactive	inactive
O=C(c1ccc(F)cc1)N(CCNc1ccccc1)c1ccccc1			inactive	inactive
O=C(Nc1ccnc(-c2cccnc2)n1)c1cc(C(F)(F)F)cc(C(F)(F)F)c1			inactive	inactive
c1ccc(Oc2ccc(-c3cncc(-c4ccc5[nH]ccc5c4)n3)cc2)cc1			inactive	inactive
O=C(Nc1cnc2ccccc2c1)c1cccc(-n2cnnn2)c1			inactive	inactive
Cc1ccc(-c2nc(CN(Cc3ccccn3)C(C)C)cs2)o1			inactive	inactive
COc1cc(C(F)(F)F)nc2ccc(C)c(N)c12			inactive	inactive
CCCNC(=O)N1CCC2(CC1)CC(=O)c1cc(C)ccc1O2			inactive	inactive
CC(=O)Nc1ccc(NC(=O)c2cc(-c3cc(Cl)ccc3O)n[nH]2)cc1			inactive	inactive
Nc1ncnc2c1ncn2C[C@@H](O)[C@@H](O)C(=O)O			inactive	inactive
COc1ccc(C(=N)N)cc1-c1cn(-c2ccc(C(=N)N)cc2)nn1			inactive	inactive
Cc1cc(Nc2ccc(C(F)(F)F)cc2)n2ccnc2n1			inactive	inactive

Molecule	inhibition [1]	inhibition [2]	inhibition [3]	inhibition [4]
COc1ccc(-c2nnc3ccc(-c4cccc(C(C)C)c4)cn23)cc1OC			inactive	inactive
Cc1cc(C2=NOC(c3cc(Cl)c(F)c(Cl)c3)(C(F)(F)F)C2)ccc1C(=O)NCc1ccc2c(c1)C(C)(C)OB2O (stereo not drawn)			inactive	inactive
O=C(Nc1ccc(N2CCNCC2)cc1)c1ccn2ncc(-c3cccc(Cl)c3)c2n1			inactive	inactive
CCc1ccc(C(NCc2nc(N)nc(N(C)C)n2)C(C)C)cc1 (stereo not drawn)			inactive	inactive
CCOc1ccc2cc(-c3nn(C(C)(C)C)c(N)c3C(N)=O)cnc2c1			inactive	inactive
COc1ccc(-c2nn(C(C)C)c3ncnc(N)c23)cc1OC			inactive	inactive
CCOC(=O)c1c(NC(=O)c2c(F)c(F)c(F)c(F)c2F)sc(C(N)=O)c1C			inactive	inactive
C[C@H]1c2cccc(O)c2C(=O)C2=C(O)[C@]3(O)C(=O)C(C(N)=O)=C(O)[C@@H](N(C)C)[C@@H]3[C@@H](O)[C@@H]21			inactive	inactive
CC(Oc1ccccc1)C(=O)Nc1nc(-c2ccccn2)cs1 (stereo not drawn)			inactive	inactive
CC1CS(=O)(=O)CCN1/N=C/c1ccc([N+](=O)[O-])o1 (stereo not drawn)			inactive	inactive
CNC(=O)c1nn(C)c2c1C(C)(C)Cc1cnc(Nc3ccc(N4CCN(C)CC4)cc3)nc1-2			inactive	inactive
COc1ccc2nccc(NC(=O)C3CCN(CCc4ccc(Cl)cc4)CC3)c2n1			inactive	inactive
CO/C=C(/C(=O)OC)c1ccccc1Oc1cc(Oc2ccccc2C#N)ncn1			inactive	inactive
NS(=O)(=O)c1cccc(-c2ccc3ncc(N4CCOCC4)nc3c2)c1			inactive	inactive
CS(=O)(=O)c1ccccc1C(=O)N(Cc1ccccc1)c1ccccc1			inactive	inactive
COc1cc(OC)cc(C(=O)NCC2Cc3cc(Cl)cc(-c4ccncc4)c3O2)c1 (stereo not drawn)			inactive	inactive
c1ccc(-c2nc(NC3CCCCC3)cc(C3CC3)n2)nc1			inactive	inactive
CCCn1c(CNc2ccccc2O)nc2ccccc21			inactive	inactive
Clc1ccc(Cl)c(CO[C@H]2CCCC[C@@H]2n2ccnc2)c1			inactive	inactive
Cc1cc(Cl)ccc1NC(=O)CCc1ccc(S(=O)(=O)NCC(C)C)cc1			inactive	inactive
